In general, IC50 refers to the point on the concentration scale where inhibition reaches its midpoint. By inhibition is commonly meant the relative decrease from the control value, in per cent.

These results are taken from patent US6753337B2, “Alkynyl containing hydroxamic acid compounds as matrix metalloproteinase/tace inhibitors” (Wyeth Holdings Corporation, priority 1999, dated 2004).

Each structure is given as a SMILES string. Where two headings read alike, the source gives them in different places.

What all share (format): biochemical
One test concerns the target MMP-13 (Homo sapiens, UniProt P45452). The test is described as follows: MMP-13 inhibition (thiopeptide or fluorescent peptide substrate). The conditions noted are these: read-out: MMP13 IC50. The method, then:
The enzyme activity is measured by the rate of the color increase. The thiopeptide substrate is made up fresh as a 20 mM stock in 100% DMSO and the DTNB is dissolved in 100% DMSO as a 100 mM stock and stored in the dark at room temperature. Both the substrate and DTNB are diluted together to 1 mM with substrate buffer (50 mM HEPES pH 7.5, 5 mM CaCl2) before use. The stock of enzyme is diluted with buffer (50 mM HEPES, pH 7.5, 5 mM CaCl2, 0.02% Brij) to the desired final concentration.
(§1) Alternatively, a fluorescent peptide substrate is used. In this test procedure, the peptide substrate contains a fluorescent group and a quenching group. Upon cleavage of the substrate by an MMP, the fluorescence that is generated is quantitated on the fluorescence plate reader. The assay is run in HCBC assay buffer (50 mM HEPES, pH 7.0, 5 mM Ca^+2, 0.02% Brij, 0.5% Cysteine), with human recombinant MMP-1, MMP-9, or MMP-13. The substrate is dissolved in methanol and stored frozen in 1 mM aliquots. For the assay, substrate and enzymes are diluted in HCBC buffer to the desired concentrations. Compounds are added to the 96 well plate containing enzyme and the reaction is started by the addition of substrate.
For either the thiopeptide or fluorescent peptide test procedures, the slope of the line is calculated and represents the reaction rate. […] The mean (x±sem) of the control rate is calculated and compared for statistical significance (p<0.05) with drug-treated rates using Dunnett's multiple comparison test.

The next test deals with T1, MMP-1 (Homo sapiens, UniProt P03956).
T1 sequence (P03956 100-469): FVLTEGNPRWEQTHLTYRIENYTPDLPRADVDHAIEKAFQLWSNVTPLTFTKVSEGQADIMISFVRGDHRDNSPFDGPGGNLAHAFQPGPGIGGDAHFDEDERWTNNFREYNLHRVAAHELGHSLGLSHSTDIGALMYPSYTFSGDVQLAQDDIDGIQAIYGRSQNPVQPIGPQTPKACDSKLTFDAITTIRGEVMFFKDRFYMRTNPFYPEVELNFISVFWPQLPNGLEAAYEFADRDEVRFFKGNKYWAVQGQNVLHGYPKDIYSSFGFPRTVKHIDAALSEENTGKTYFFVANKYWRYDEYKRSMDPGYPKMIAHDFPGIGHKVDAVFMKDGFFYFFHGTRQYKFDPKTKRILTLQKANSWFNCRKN
The test is described as follows: MMP-1 inhibition (thiopeptide or fluorescent peptide substrate). To be noted: read-out: MMP1 IC50. How it is done: These standard pharmacological test procedures are based on the cleavage of a thiopeptide substrates such as Ac-Pro-Leu-Gly(2-mercapto-4-methyl-pentanoyl)-Leu-Gly-OEt by the matrix metalloproteinases MMP-1, MMP-13 (collagenases) or MMP-9 (gelatinase), which results in the release of a substrate product that reacts colorimetrically with DTNB (5,5′-dithiobis(2-nitro-benzoic acid)). The enzyme activity is measured by the rate of the color increase. The thiopeptide substrate is made up fresh as a 20 mM stock in 100% DMSO and the DTNB is dissolved in 100% DMSO as a 100 mM stock and stored in the dark at room temperature. Both the substrate and DTNB are diluted together to 1 mM with substrate buffer (50 mM HEPES pH 7.5, 5 mM CaCl2) before use. The stock of enzyme is diluted with buffer (50 mM HEPES, pH 7.5, 5 mM CaCl2, 0.02% Brij) to the desired final concentration. The buffer, enzyme, vehicle or inhibitor, and DTNB/substrate are added in this order to a 96 well plate (total reaction volume of 200 μl) and the increase in color is monitored spectrophotometrically for 5 minutes at 405 nm on a plate reader and the increase in color over time is plotted as a linear line.
as §1, with “substrate. The reaction is read (excitation 340 nm, emission 444 nm) for 10 min. and the increase in fluorescence over time is plotted as a linear line.” for “substrate.”
For either the thiopeptide or fluorescent peptide test procedures, the slope of the line is calculated and represents the reaction rate. The linearity of the reaction rate is confirmed (r^2>0.85). The mean (x±sem) of the control rate is calculated and compared for statistical significance (p<0.05) with drug-treated rates using Dunnett's multiple comparison test. Dose-response relationships can be generated using multiple doses of drug and IC50 values with 95% CI are estimated using linear regression.

Test [1] addresses TNF-α converting enzyme (TACE) (Homo sapiens, UniProt P78536). The test is described as follows: Test procedure for measuring TACE inhibition (fluorescent peptidyl substrate). How it is done:
Using 96-well black microtiter plates, each well receives a solution composed of 10 μL TACE (final concentration 1 μg/mL), 70 μL Tris buffer, pH 7.4 containing 10% glycerol (final concentration 10 mM), and 10 μL of test compound solution in DMSO (final concentration 1 μM, DMSO concentration <1%) and incubated for 10 minutes at room temperature. The reaction is initiated by addition of a fluorescent peptidyl substrate (final concentration 100 μM to each well and then shaking on a shaker for 5 sec.
The reaction is read (excitation 340 nm, emission 420 nm) for 10 min. and the increase in fluorescence over time is plotted as a linear line. The slope of the line is calculated and represents the reaction rate.
The mean (x±sem) of the control rate is calculated and compared for statistical significance (p<0.05) with drug-treated rates using Dunnett's multiple comparison test.

Sequence of TNF-α converting enzyme (TACE) (P78536 215-824): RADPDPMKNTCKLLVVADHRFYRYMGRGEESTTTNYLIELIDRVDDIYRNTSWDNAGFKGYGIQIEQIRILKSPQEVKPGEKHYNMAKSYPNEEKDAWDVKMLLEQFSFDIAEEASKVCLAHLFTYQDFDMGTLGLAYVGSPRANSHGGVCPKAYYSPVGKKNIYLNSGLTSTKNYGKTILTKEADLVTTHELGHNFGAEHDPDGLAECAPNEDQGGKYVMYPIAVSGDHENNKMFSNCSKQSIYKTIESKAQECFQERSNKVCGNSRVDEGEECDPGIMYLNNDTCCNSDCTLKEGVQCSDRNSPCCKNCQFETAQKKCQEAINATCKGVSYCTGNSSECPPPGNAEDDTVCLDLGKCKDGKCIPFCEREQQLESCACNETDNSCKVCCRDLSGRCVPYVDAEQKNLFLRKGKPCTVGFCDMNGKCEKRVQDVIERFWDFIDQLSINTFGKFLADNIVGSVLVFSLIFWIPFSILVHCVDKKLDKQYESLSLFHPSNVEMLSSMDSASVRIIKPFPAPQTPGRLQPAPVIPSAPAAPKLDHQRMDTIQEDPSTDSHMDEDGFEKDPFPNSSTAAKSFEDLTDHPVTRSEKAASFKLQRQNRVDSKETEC

In the case of `CC#CCOc1ccc(S(=O)(=O)C2(C(=O)NO)CCN(Cc3ccc(Br)cc3)CC2)cc1` [Example 1, 1-(4-Bromo-benzyl)-4-(4-but-2-ynyxoy-benzenesulfonyl)-piperdine-4-carboxylic acid hydroxyamide], the IC50 at MMP-13 stood at 0.155 µM; on MMP-1, 3300 nM; in test [1], 0.065 µM.
For the compound `CC#CCOc1ccc(S(=O)(=O)C2(C(=O)NO)CCN(Cc3ccc(OC)cc3)CC2)cc1` [Example 2, 4-(4-But-2-ynyloxy-benzenesulfonyl)-1-(4-methoxy-benzyl)-piperdine-4-carboxylic acid hydroxyamide], the figures for the IC50 (on MMP-13; on MMP-1; in test [1]) were 0.0396 µM, 2570 nM and 0.082 µM, respectively.
As to `CC#CCOc1ccc(S(=O)(=O)C2(C(=O)NO)CCN(Cc3ccc(Cl)cc3)CC2)cc1` [Example 3, 4-(4-But-2-ynyloxy-benzenesulfonyl)-1-(4-chloro-benzyl)-piperdine-4-carboxylic acid hydroxyamide], the IC50 worked out at 0.09 µM on MMP-13, 9000 nM on MMP-1 and 0.055 µM in test [1].
On the same counts, the results for `CC#CCOc1ccc(S(=O)(=O)C2(C(=O)NO)CCN(Cc3ccccc3)CC2)cc1` [Example 4, 1-Benzyl-4-(4-but-2-ynyloxy-benzenesulfonyl)-piperdine-4-carboxylic acid hydroxyamide] are 0.0473 µM, 2600 nM and 0.09 µM.
Take `CCC#CCOc1ccc(S(=O)(=O)C2(C(=O)NO)CCN(Cc3ccc(Br)cc3)CC2)cc1` [Example 5, 1-(4-Bromo-benzyl)-4-(4-pent-2-ynyloxy-benzenesulfonyl)-piperdine-4-carboxylic acid hydroxyamide]: the results for the IC50 (on MMP-13; on MMP-1; in test [1]) were 0.18 µM, 300 nM and 0.188 µM, respectively.
Regarding `CC#CCOc1ccc(S(=O)(=O)C2(C(=O)NO)CCN(Cc3ccc(F)cc3)CC2)cc1` [Example 7, 4-(4-But-2-ynyloxy-benzenesulfonyl)-1-(4-fluoro-benzyl)-piperidine-4-carboxylic acid hydroxyamide], the IC50 at MMP-13 amounted to 0.0594 µM; at MMP-1 it was 2500 nM; in test [1] it was 0.123 µM.
Taken in the same sequence, the figures for `CC#CCOc1ccc(S(=O)(=O)C2(C(=O)NO)CCN(Cc3ccc(C#N)cc3)CC2)cc1` [Example 8, 4-(4-But-2-ynyloxy-benzenesulfonyl)-1-(4-cyano-benzyl)-piperidine-4-carboxylic acid hydroxyamide] were 0.072 µM, 4700 nM and 0.195 µM.
On to `CC#CCOc1ccc(S(=O)(=O)C2(C(=O)NO)CCN(Cc3ccc(C)cc3)CC2)cc1` [Example 9, 4-(4-But-2-ynyloxy-benzenesulfonyl)-1-(4-methyl-benzyl)-piperidine-4-carboxylic acid hydroxamide], for which the IC50 on MMP-13 was 0.0352 µM; at MMP-1, 2100 nM; in test [1], 0.166 µM.
For the compound `C#CCOc1ccc(S(=O)(=O)C2(C(=O)NO)CCN(Cc3ccc(Br)cc3)CC2)cc1` [Example 11, 1-(4-Bromo-benzyl)-4-(4-prop-2-ynyloxy-benzenesulfonyl)-piperdine-4-carboxylic acid hydroxyamide], the values for the IC50 (at MMP-13; on MMP-1; in test [1]) were 0.0031 µM, 143 nM and 0.098 µM, respectively.
As for `O=C(NO)C1(S(=O)(=O)c2ccc(OCC#CCN3CCCCC3)cc2)CCN(Cc2ccc(Br)cc2)CC1` [Example 12, 1-(4-bromo-benzyl)-4-[4-(4-piperidin-1-yl-but-2-ynyloxy)-benzenesulfonyl]-piperidine-4-carboxylic acid hydroxyamide], the figures for the IC50 on MMP-13 and on MMP-1 were 1.5 µM and 15000 nM, respectively. The compound further returned an inhibition at 1 µM in test [1] of 41.8%.
For `CC#CCOc1ccc(S(=O)(=O)C2(C(=O)NO)CCOCC2)cc1` [Example 20, 4-{[4-(2-butynyloxy)phenyl]sulfonyl}-N-hydroxytetrahydro-2H-pyran-4-carboxamide], the IC50 was determined as 0.121 µM at MMP-13, 2640 nM on MMP-1 (cells that print nM) and 0.0301 µM in test [1].
`CC#CCOc1cccc(S(=O)(=O)C2(C(=O)NO)CCN(Cc3ccccc3)CC2)c1` [Example 21, 1-benzyl-4-{[3-(2-butynyloxy)phenyl]sulfonyl}-N-hydroxy-4-piperdine carboxamide]: the IC50 on MMP-13 was 0.858 µM; on MMP-1 it was above 10000 nM; in test [1], 0.509 µM.
Take `CC#CCOc1ccc(S(=O)(=O)C2(C(=O)NO)CCN(C(C)C)CC2)cc1` [Example 22, 4-{[4-(2-butynyloxy)phenyl]sulfonyl}-N-hydroxy-1-isopropyl-4-piperidine carboxamide]: the IC50 is 1.08 µM on MMP-13 and above 10000 nM at MMP-1. This compound also returned an inhibition at 1 µM in test [1] of 48.4%.
As for `CC#CCOc1ccc(S(=O)(=O)C2(C(=O)NO)CCN(Cc3cccnc3)CC2)cc1` [Example 23, 4-{[4-(2-butynyloxy)phenyl]sulfonyl}-N-hydroxy-1-(3-pyridinylmethyl)-4-piperidine carboxamide], the IC50 on MMP-13 worked out at 0.0644 µM; on MMP-1 (cells that print nM), 3210 nM; in test [1], 0.0862 µM.
Consider `CC#CCOc1ccc(S(=O)(=O)C2(C(=O)NO)CCCN(CC)C2)cc1` (stereo not drawn) [Example 24, 3-{[4-(2-Butynyloxy)phenyl]sulfonyl}-1-ethyl-N-hydroxy-3-piperidinecarboxamide], for which the values for the IC50 (on MMP-13; at MMP-1 (cells that print nM); in test [1]) were 0.463 µM, 5670 nM and 0.18 µM, respectively.
Take `CC#CCOc1ccc(S(=O)(=O)C2(C(=O)NO)CCCN(Cc3ccc(Cl)cc3)C2)cc1` (stereo not drawn) [Example 25, 3-{[4-(2-butynyloxy)phenyl]sulfonyl}-1-(4-chlorobenzyl)-N-hydroxy-3-piperidinecarboxamide]: the IC50 on MMP-13 was 1.18 µM; on MMP-1, above 10000 nM; in test [1] it was 0.695 µM.
Take `CC#CCOc1ccc(S(=O)(=O)C2(C(=O)NO)CCN(Cc3ccc(OCCN4CCCCC4)cc3)CC2)cc1` [Example 26, 4-{[4-(2-Butynyloxy)phenyl]sulfonyl}-1-[4-(2-piperidin-1-yl-ethoxy)-benzyl]-piperidine-4-carboxylic acid hydroxyamide]: the values for the IC50 (on MMP-13; at MMP-1 (cells that print nM); in test [1]) were 0.0221 µM, 1990 nM and 0.136 µM, respectively.
